Source: US6320024A, “Method for design of substances that enhance memory and improve the quality of life” (priority 1999, dated 2001)
Ends that are not written are not given here. Peptide text beside a SMILES is read from it.

Tests used:
CD-1 male mice [1] = assay: Memory-enhancing effect on retention of FAAT in T-maze, weakly trained mice (poor retention in vehicle controls), post-training ICV administration; assay type: in vivo
Protocol: (§1) After 1 week in the laboratory, CD-1 male mice obtained from Charles River Breeding Laboratories were caged individually 24-28 hours prior to training and remained singly housed until retention was tested one week later. Animal rooms were on a 12 hour light/dark cycle with lights going on at the hour of 0600. Median body weight was 35 g, with a range of 33-38 g. Mice were assigned randomly to groups of 15 in the experiments reported in FIGS. 1-18 and groups of 10 for the dose-response curves (FIGS. 19 and 20) and were trained and tested between the hours of 0700 and 1500.
With the exception of Val Phe and Phe Val from Sigma, all peptides used in these studies were synthesized and analyzed to establish purity by standard methods at the Beckman Research Institute. Peptides were dissolved in: (1) saline; (2) 8% vol/vol dimethyl sulfoxide: (3) glacial acetic acid neutralized with […]; or (4) NaOH neutralized with HCl. […] Analysis of variance showing insignificant differences among the latter, the value for the most frequently employed (No. 2 above) was used for comparison with groups receiving test peptides.
The T-maze used for footshock active avoidance training (FAAT) consisted of a black plastic alley (46 cm long) with a start box at one end and two goal boxes (17.5 cm long) at the other. […]

CD-1 male mice [2] = assay: Amnestic effect on retention of footshock active avoidance training (FAAT) in T-maze, well-trained mice, post-training ICV administration; assay type: in vivo; conditions: for amnestic effect on retention of FAAT: well-trained mice, post-training ICV, 6.14 nmol of peptide per mouse except dose-response curves, retention tested one week later; for molar amnestic efficacy / potency compared with another peptide: dose-response curves or FIG. 19
Protocol: as §1
With the exception of Val Phe and Phe Val from Sigma, all peptides used in these studies were synthesized and analyzed to establish purity by standard methods at the Beckman Research Institute. Peptides were dissolved in: (1) saline; (2) 8% vol/vol dimethyl sulfoxide: (3) glacial acetic acid neutralized with […]; or (4) NaOH neutralized with HCl.
With exception of dose-response curves, the experiments reported below tested whether or not there was an amnestic: effect at 6.14 nmol of peptide per mouse.
The T-maze used for footshock active avoidance training (FAAT) consisted of a black plastic alley (46 cm long) with a start box at one end and two goal boxes (17.5 cm long) at the other. The start box was separated from the alley by a plastic guillotine door that prevented movement down the alley until training began. The alley was 12.5 cm deep and 9.8 cm wide. An electrifiable stainless steel rod floor ran throughout the maze.
Mice were not permitted to explore the maze before training. A block of training trials began when a mouse was placed in the start box. The guillotine door was raised and a muffled doorbell-type buzzer sounded simultaneously; footshock was 5 seconds later through a scrambled grid floor shocker (Colbourn Instruments, Model E13-08). The goal box first entered during the first set of trials was designated as "incorrect", and footshock was continued until the mouse entered the other goal box, which in all subsequent trials was designated "correct" for the particular mouse. At the end of each group of trials, the mouse was removed to its home cage.
As training proceeded, a mouse made one of two types of responses. A response latency longer than 5 seconds was classed as an escape from the footshock. A response latency less than or equal to 5 seconds was considered an avoidance, since the mouse avoided receiving a footshock. Two exclusion criteria were applied to reduce learning variability among mice, as follows. On the first training trials, mice with escape latencies greater than 20 seconds were discarded. Mice not having at least one errorless escape latency between 1.5 and 3.5 seconds on training trials 3 or 4 were excluded. […] Mice received five such training trials. One week after training and post-trial administration of vehicle alone or vehicle containing test substance, T-maze training was resumed until each mouse made five avoidance responses in six consecutive training trials (trials to criterion). The recall score was taken to be the percentage of tested mice remembering original training.
In these instances, training was performed under conditions that tend to maximize learning (sound intensity, 65 decibels; footshock current, 0.35 mA; intertrial interval, 45 seconds).

CD-1 male mice [3] = conditions: cited from earlier work; for amnestic effect on retention of FAAT (literature): post-training ICV in mice, references 1 and 12
[4] = tested on: hippocampal neurons in culture; conditions: reference 17; cited from earlier work

**Q.** Which “memory-enhancing potency compared with other peptides” value (CD-1 male mice [1]; poor retention in vehicle controls) does the source give for `NC(=O)CC[C@H](N)C(=O)N[C@@H](Cc1ccccc1)C(=O)N[C@@H](Cc1ccccc1)C(=O)NCC(=O)O` [Gln Phe Phe Gly] (H-QFFG-OH) here?
**A.** The value was “by far the most potent”.

**Q.** And the “amnestic effect on retention of FAAT” value (CD-1 male mice [2])?
**A.** Its value is “amnestic”.

**Q.** With `CC(C)[C@H](N)C(=O)N[C@@H](Cc1ccccc1)C(=O)N[C@@H](Cc1ccccc1)C(=O)O` [Val Phe Phe] (H-Val-Phe-Phe-OH) as the molecule, how does the memory-enhancing effect (CD-1 male mice [1]; weakly trained animals, ICV) read?
**A.** The memory-enhancing effect was “memory enhancer”.

**Q.** And the “molar amnestic efficacy / potency compared with another peptide” value (CD-1 male mice [2])?
**A.** The value was “not significantly different from that of the β-A4 homologue”.

**Q.** And the “amnestic effect on retention of FAAT” value (CD-1 male mice [2])?
**A.** Its value is “amnestic”.

**Q.** With `CC(C)[C@H](N)C(=O)N[C@@H](Cc1ccccc1)C(=O)N[C@H](C(=O)O)[C@@H](C)O` [Val Phe Thr] (H-Val-Phe-Thr-OH) as the molecule, how does the “amnestic effect on retention of FAAT” value (CD-1 male mice [2]) read?
**A.** Its value is “amnestic”.

**Q.** For “His Ser Asp Ala Val Phe Thr Asp Asn Tyr Thr Arg Leu Lys Gln Met Ala Val Lys Lys Tyr Leu Asn Ser Ile Leu Asn-NH2 (HSDAVFTDNYTRLKQMAVKKYLNSILN-NH2) [VIP]”, which “amnestic effect on retention of FAAT (literature)” value (CD-1 male mice [3]) is on record?
**A.** Its value is “amnestic”.

**Q.** For KLVFFAE [Lys Leu Val Phe Phe Ala Glu], which “amnestic effect on retention of FAAT” value (CD-1 male mice [2]) is on record?
**A.** The value was “not amnestic”.

**Q.** With “Pro Arg Pro Gly Pro Gln Gln Phe Phe Gly Leu Met-NH2 (PRPGPQQFFGLM-NH2) [Substance Pro]” as the molecule, how does the “effect on trophic and toxic effects of β-A4” value [4] read?
**A.** The value was “counteract trophic and toxic effects of β-A4”.

**Q.** For VFFAE [Val Phe Phe Ala Glu], which “molar amnestic efficacy / potency compared with another peptide” value (CD-1 male mice [2]) is on record?
**A.** The value was “lesser potency”.

**Q.** And the “amnestic effect on retention of FAAT” value (CD-1 male mice [2])?
**A.** The value was “amnestic”.

**Q.** With VFFAEDVGSNK [β-(18-28)] as the molecule, how does the “amnestic effect on retention of FAAT (literature)” value (CD-1 male mice [3]) read?
**A.** Its value is “amnestic”.

**Q.** With “β-(1-18): β-A4 fragment of reference 1, probably misprint of β-(1-28)” as the molecule, how does the “amnestic activity at lower dose (literature)” value (CD-1 male mice [3]; 1.5 nmol per mouse, reference 1) read?
**A.** The value was “active”.
